Source: patent US11098026B2, “Fused bicyclic compounds, compositions and applications thereof” (IMPETIS BIOSCIENCES LIMITED, priority 2017, dated 2021)

Target: T1, human GPR91 receptor (Homo sapiens, UniProt Q9BXA5)
T1 construct: expressed in transfected cells; host or cells: CHO-K1 NFAT cells
T1 sequence (Q9BXA5 1-334): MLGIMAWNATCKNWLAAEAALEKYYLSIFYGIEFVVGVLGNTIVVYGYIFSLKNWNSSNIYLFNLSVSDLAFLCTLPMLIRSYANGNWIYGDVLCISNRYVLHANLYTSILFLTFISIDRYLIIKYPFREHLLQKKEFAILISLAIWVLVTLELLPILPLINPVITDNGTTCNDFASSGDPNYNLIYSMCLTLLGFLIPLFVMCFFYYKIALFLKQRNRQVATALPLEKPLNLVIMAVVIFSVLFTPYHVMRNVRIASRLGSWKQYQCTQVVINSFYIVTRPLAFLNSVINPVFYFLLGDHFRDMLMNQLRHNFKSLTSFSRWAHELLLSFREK
Test: Human GPR91 calcium mobilization assay
Type: cell-based
Conditions: CHO-K1 NFAT cells over expressing human GPR91 receptor; Fluo4 AM; agonist sodium succinate; flex station; read-out: hGPR91 IC50 (μM)*
Protocol: Human GPR91 Calcium Mobilization Assay
To determine IC50 in CHO NFAT cells over expressing human GPR91 receptor calcium mobilization assay in flex station mode was carried out.
Grow CHO-K1 NFAT cells over expressing human GPR91 receptors in alpha MEM media were supplemented with 10% FBS (heat inactivated), 0.5 mg/ml of G-418, 0.5 mg/ml of Zeocin and 0.6 mg/ml of Hygromycin B.
The cells were seeded at least 21 hours before the experiment at the density of 25000/well in 96 well plate (Corning cat #no. 3603). It was made sure that cells were at least 95% confluent on the day of assay. No antibiotics were used for seeding purpose.
On the day of assay the media was discarded from plates and plates were washed with 100 μl of HBSS assay buffer. The plates were loaded with Fluo4 AM at 2 μM concentration. Pluronic F-127 dye was solubilized in calcium assay buffer containing 0.1% BSA, i.e., 20 μl dye+20 μl Pluronic F127 for 10 ml. Appropriate amounts of 100× probenecid was added to the loading mixture 1× final (100 μl per 10 ml). Total volume of dye loaded was made 100 μl. The plate was then wrapped in aluminium foil to protect from light and were incubated for 90 mins at 37 degrees in cell culture incubator. At the end of incubation the plates was washed again with 100 μl of HBSS buffer without BSA and 75 μl of HBSS buffer was added (without BSA) to the plate.
Further, 8 point-Dose response curve of the compounds of the present disclosure was prepared in 100% DMSO followed by 57.14-fold dilution to 1.75× in 1.75% DMSO in assay buffer. 100 μL of 1.75×NCE was added to the wells as shown below and incubated at room temp on orbital shaker at 300 rpm for 15 min. Flexstation [excitation @ 485 nm and emission @ 525 nm] for a total time of 60 seconds. 25 μL of 8× agonist (800 μM sodium succinate) was added to each well using the flexstation after establishing the baseline for 20 sec, Measurement—Max-Min over 60 sec. Using the above protocol results obtained are tabulate din the Table 1 below: […]

Structure (SMILES)	IC50 [µM]
O=C(O)CCc1cccc(Oc2ccc(Oc3cccc4nccn34)cc2C(F)(F)F)c1 [Compound A-37, 3-[3-[4-imidazo[1,2-a]pyridin-5-yloxy-2-(trifluoromethyl)phenoxy]phenyl]propanoic acid]	> 10
CN1CCc2cccc(Oc3ccc(Oc4cccc(CCC(=O)O)c4)c(C(F)(F)F)c3)c2C1 [Compound A-10, 3-[3-[4-[(2-methyl-3,4-dihydro-1H-isoquinolin-8-yl)oxy]-2-(trifluoromethyl)phenoxy]phenyl]propanoic acid]	> 10
O=C(O)Cc1cccc(Oc2ccc(Oc3ccc4ccn(C5COC5)c4n3)cc2C(F)(F)F)c1 [Compound A-30, 2-[3-[4-[1-(oxetan-3-yl)pyrrolo[2,3-b]pyridin-6-yl]oxy-2-(trifluoromethyl)phenoxy]phenyl]acetic acid]	> 10
FC(F)(F)c1cc(Oc2cccc3ccncc23)ccc1Oc1cccc(Cc2nnn[nH]2)c1 [Compound D-3, 8-[4-[3-(1H-tetrazol-5-ylmethyl)phenoxy]-3-(trifluoromethyl)phenoxy]isoquinoline]	5 to 10
O=C(O)CCc1cccc(Oc2ccc(Oc3cccc4cccnc34)cc2C(F)(F)F)c1 [Compound A-12, 3-[3-[4-(8-quinolyloxy)-2-(trifluoromethyl)phenoxy]phenyl]propanoic acid]	> 10
O=C(O)Cc1cccc(Oc2ccc(Oc3ccc4nn(C5COC5)cc4c3)cc2C(F)(F)F)c1 [Compound A-24, 2-[3-[4-[2-(oxetan-3-yl)indazol-5-yl]oxy-2-(trifluoromethyl)phenoxy]phenyl]acetic acid]	> 10
O=C(O)Cc1cccc(Oc2ccc(Oc3cnc4ncn(C5COC5)c4c3)cc2C(F)(F)F)c1 [Compound A-29, 2-[3-[4-[1-(oxetan-3-yl)imidazo[4,5-b]pyridin-6-yl]oxy-2-(trifluoromethyl)phenoxy]phenyl]acetic acid]	> 10
NC(=O)CCc1cccc(Oc2ccc(Oc3cccc4ccncc34)cc2C(F)(F)F)c1 [Compound C-2, 3-[3-[4-(8-isoquinolyloxy)-2-(trifluoromethyl)phenoxy]phenyl]propanamide]	5 to 10
O=C(O)CCc1cccc(Oc2ccc(Oc3cccn4ccnc34)cc2C(F)(F)F)c1 [Compound A-7, 3-[3-[4-imidazo[1,2-a]pyridin-8-yloxy-2-(trifluoromethyl)phenoxy]phenyl]propanoic acid]	> 10
FC(F)(F)c1cc(Oc2cccc3ccncc23)ccc1Oc1cccc(CCc2nnc[nH]2)c1 [Compound D-1, 8-[4-[3-[2-(4H-1,2,4-triazol-3-yl)ethyl]phenoxy]-3-(trifluoromethyl)phenoxy]isoquinoline]	> 10
O=C(O)Cc1cccc(Oc2ccc(Oc3ccc4c(cnn4C4COC4)c3)cc2C(F)(F)F)c1 [Compound A-23, 2-[3-[4-[1-(oxetan-3-yl)indazol-5-yl]oxy-2-(trifluoromethyl)phenoxy]phenyl]acetic acid]	> 10
O=C(O)Cc1cccc(Oc2ccc(Oc3ccn4cnnc4c3)cc2C(F)(F)F)c1 [Compound A-19, 2-[3-[4-([1,2,4]triazolo[4,3-a]pyridin-7-yloxy)-2-(trifluoromethyl)phenoxy]phenyl]acetic acid]	> 10
O=C(O)CCc1cccc(Oc2ccc(Oc3cccc4cnncc34)cc2C(F)(F)F)c1 [Compound A-3, 3-[3-[4-phthalazin-5-yloxy-2-(trifluoromethyl)phenoxy]phenyl]propanoic acid]	< 5
O=C(O)Cc1cccc(Oc2ccc(Oc3ccc4c(ccn4CC(=O)O)c3)cc2C(F)(F)F)c1 [Compound A-32, 2-[3-[4-[1-(carboxymethyl)indol-5-yl]oxy-2-(trifluoromethyl)phenoxy]phenyl]acetic acid]	> 10
O=C(O)Cc1cccc(Oc2ccc(Oc3ccc4cnc(C5COC5)n4c3)cc2C(F)(F)F)c1 [Compound B-5, 2-[3-[4-[3-(oxetan-3-yl)imidazo[1,5-a]pyridin-6-yl]oxy-2-(trifluoromethyl)phenoxy]phenyl]acetic acid]	5 to 10

Next, values leading:

IC50 [µM]	Structure (SMILES)
< 5	Cc1nc2ccc(Oc3ccc(Oc4cccc(CC(=O)O)c4)c(C(F)F)c3)cc2n1C1COC1 [Compound A-28, 2-[3-[2-(difluoromethyl)-4-[2-methyl-3-(oxetan-3-yl)benzimidazol-5-yl]oxy-phenoxy]phenyl]acetic acid]
< 5	Cn1cc2c(Oc3ccc(Oc4cccc(CC(=O)O)c4)c(C(F)(F)F)c3)cccc2n1 [Compound A-15, 2-[3-[4-(2-methylindazol-4-yl)oxy-2-(trifluoromethyl)phenoxy]phenyl]acetic acid]
< 5	O=C(O)Cc1cccc(Oc2ccc(Oc3cccc4ccncc34)cc2C(F)(F)F)c1 [Compound A-1, 2-[3-[4-(8-isoquinolyloxy)-2-(trifluoromethyl)phenoxy]phenyl]acetic acid]
< 5	O=C(O)Cc1cccc(Oc2ccc(Oc3ccc4ccn(CC(=O)O)c4c3)cc2C(F)(F)F)c1 [Compound A-33, 2-[3-[4-[1-(carboxymethyl)indol-6-yl]oxy-2-(trifluoromethyl)phenoxy]phenyl]acetic acid]
< 5	O=C(O)Cc1cccc(Oc2ccc(Oc3cccc4ncncc34)cc2C(F)(F)F)c1 [Compound A-9, 2-[3-[4-quinazolin-5-yloxy-2-(trifluoromethyl)phenoxy]phenyl]acetic acid]
< 5	O=C(O)Cc1cccc(Oc2ccc(Oc3cccn4cncc34)cc2C(F)(F)F)c1 [Compound B-2, 2-[3-[4-imidazo[1,5-a]pyridin-8-yloxy-2-(trifluoromethyl)phenoxy]phenyl]acetic acid]
< 5	O=C(O)Cc1cccc(Oc2ccc(Oc3ccc4cn(C5COC5)nc4c3)cc2C(F)(F)F)c1 [Compound A-22, 2-[3-[4-[2-(oxetan-3-yl)indazol-6-yl]oxy-2-(trifluoromethyl)phenoxy]phenyl]acetic acid]
< 5	N#Cc1n[nH]c2ccc(Oc3ccc(Oc4cccc(CC(=O)O)c4)c(C(F)(F)F)c3)cc12 [Compound A-46, 2-[3-[4-[(3-cyano-1H-indazol-5-yl)oxy]-2-(trifluoromethyl)phenoxy]phenyl]acetic acid]
< 5	O=C(O)Cc1cccc(Oc2ccc(Oc3cccc4ccnc(Cl)c34)cc2C(F)(F)F)c1 [Compound A-40, 2-[3-[4-[(1-chloro-8-isoquinolyl)oxy]-2-(trifluoromethyl)phenoxy]phenyl]acetic acid]
< 5	O=C(O)Cc1cccc(Oc2ccc(Oc3cccc4cncn34)cc2C(F)(F)F)c1 [Compound B-1, 2-[3-[4-imidazo[1,5-a]pyridin-5-yloxy-2-(trifluoromethyl)phenoxy]phenyl]acetic acid]
< 5	O=C(O)CCc1cccc(Oc2ccc(Oc3cccc4cnccc34)cc2C(F)(F)F)c1 [Compound A-14, 3-[3-[4-(5-isoquinolyloxy)-2-(trifluoromethyl)phenoxy]phenyl]propanoic acid]
< 5	NC(=O)Cc1cccc(Oc2ccc(Oc3cccc4ccncc34)cc2C(F)(F)F)c1 [Compound C-3, 2-[3-[4-(8-isoquinolyloxy)-2-(trifluoromethyl)phenoxy]phenyl]acetamide]
< 5	Cn1ncc2c(Oc3ccc(Oc4cccc(CC(=O)O)c4)c(C(F)(F)F)c3)cccc21 [Compound A-16, 2-[3-[4-(1-methylindazol-4-yl)oxy-2-(trifluoromethyl)phenoxy]phenyl]acetic acid]
< 5	O=C(O)Cc1cccc(Oc2ccc(Oc3ccc4nnn(C5COC5)c4c3)cc2C(F)(F)F)c1 [Compound A-25, 2-[3-[4-[3-(oxetan-3-yl)benzotriazol-5-yl]oxy-2-(trifluoromethyl)phenoxy]phenyl]acetic acid]
< 5	Cn1cc2cc(Oc3ccc(Oc4cccc(CCC(=O)O)c4)c(C(F)(F)F)c3)ccc2n1 [Compound A-35, 3-[3-[4-(2-methylindazol-5-yl)oxy-2-(trifluoromethyl)phenoxy]phenyl]propanoic acid]
< 5	O=C(O)CCc1cccc(Oc2ccc(Oc3ccc4[nH]ncc4c3)cc2C(F)(F)F)c1 [Compound A-45, 3-[3-[4-(1H-indazol-5-yloxy)-2-(trifluoromethyl)phenoxy]phenyl]propanoic acid]
